According to patent US20230265151A1, “GIP/GLP1 CO-AGONIST COMPOUNDS” (priority 2020, published 2023):
Read-outs that look alike come from different tables or passages of the source.

Tests used:
[1] = target: T1, human Gcg receptor (hGcgR) (Homo sapiens, UniProt P47871); assay: [125I]-Glucagon binding, SPA with membranes of HEK293 cells expressing hGcgR; conditions: human GcgR; geometric mean (SEM, n); read-out: Binding Affinity Ki, nM (SEM, n) hGCGR
T1 construct: expressed in transfected cells; crude membranes
T1 sequence (P47871 26-477): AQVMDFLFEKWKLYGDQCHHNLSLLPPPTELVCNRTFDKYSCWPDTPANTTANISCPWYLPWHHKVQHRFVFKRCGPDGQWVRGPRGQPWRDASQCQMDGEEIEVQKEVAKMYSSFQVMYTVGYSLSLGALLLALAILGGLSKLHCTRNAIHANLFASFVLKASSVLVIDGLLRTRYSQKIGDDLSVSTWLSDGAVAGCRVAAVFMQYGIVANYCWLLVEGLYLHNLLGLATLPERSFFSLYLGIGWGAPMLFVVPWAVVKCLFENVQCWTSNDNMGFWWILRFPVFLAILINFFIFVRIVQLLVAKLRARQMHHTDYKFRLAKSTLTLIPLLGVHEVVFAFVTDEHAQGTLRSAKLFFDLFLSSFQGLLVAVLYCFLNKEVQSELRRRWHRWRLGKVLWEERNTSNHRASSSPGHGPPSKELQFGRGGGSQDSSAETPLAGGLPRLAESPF

hGIPR = target: T2, hGIPR (Homo sapiens, UniProt P48546); assay: Functional cAMP formation (HTRF) in HEK-293 clonal cells expressing hGIPR, 0.1% bovine casein, without or with 1.0% human serum albumin; assay type: cell-based; conditions: for EC50: read-out: hGIPR EC50, nM (SEM, n); for Emax: read-out: hGIPR Emax, % ± SEM
T2 construct: expressed in transfected cells
T2 sequence (P48546 22-466): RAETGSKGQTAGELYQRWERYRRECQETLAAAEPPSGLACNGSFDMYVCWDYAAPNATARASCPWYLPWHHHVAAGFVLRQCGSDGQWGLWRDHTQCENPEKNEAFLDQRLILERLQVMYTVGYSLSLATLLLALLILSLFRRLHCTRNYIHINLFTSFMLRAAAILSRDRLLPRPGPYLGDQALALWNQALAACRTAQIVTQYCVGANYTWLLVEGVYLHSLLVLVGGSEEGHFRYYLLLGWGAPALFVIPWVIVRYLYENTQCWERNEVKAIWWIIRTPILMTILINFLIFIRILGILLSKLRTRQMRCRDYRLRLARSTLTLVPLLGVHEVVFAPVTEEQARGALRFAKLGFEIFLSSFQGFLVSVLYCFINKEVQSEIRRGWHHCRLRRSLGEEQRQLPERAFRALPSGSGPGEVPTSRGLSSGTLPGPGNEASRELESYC
Summary of the method: (§1)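 Readings of the HTRF 665/620 nm ratio, which falls as cAMP rises, were converted to nM cAMP using a standard curve after 30 min peptide exposure at 37° C.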

hGCGR = target: T3, hGCGR (Homo sapiens, UniProt P47871); assay: Functional cAMP formation (HTRF) in HEK-293 clonal cells expressing hGCGR, 0.1% bovine casein, without or with 1.0% human serum albumin; assay type: cell-based; conditions: read-out: hGCGR EC50, nM (SEM, n)
T3 construct: expressed in transfected cells
T3 sequence (P47871 26-477): as the sequence (P47871 26-477) above
Summary of the method: as §1

hGLP-1R = hGLP-1R (Homo sapiens, UniProt P43220); assay: Functional cAMP formation (HTRF) in HEK-293 clonal cells expressing hGLP-1R, 0.1% bovine casein, without or with 1.0% human serum albumin; assay type: cell-based; parameters: expressed in transfected cells; conditions: 37° C.; for EC50: geometric mean, read-out: hGLP-1R EC50, nM (SEM, n); for Emax: percent of maximal response to GLP-1(7-36)NH2, read-out: hGLP-1R Emax, % ± SEM
Chain of hGLP-1R (P43220 24-463): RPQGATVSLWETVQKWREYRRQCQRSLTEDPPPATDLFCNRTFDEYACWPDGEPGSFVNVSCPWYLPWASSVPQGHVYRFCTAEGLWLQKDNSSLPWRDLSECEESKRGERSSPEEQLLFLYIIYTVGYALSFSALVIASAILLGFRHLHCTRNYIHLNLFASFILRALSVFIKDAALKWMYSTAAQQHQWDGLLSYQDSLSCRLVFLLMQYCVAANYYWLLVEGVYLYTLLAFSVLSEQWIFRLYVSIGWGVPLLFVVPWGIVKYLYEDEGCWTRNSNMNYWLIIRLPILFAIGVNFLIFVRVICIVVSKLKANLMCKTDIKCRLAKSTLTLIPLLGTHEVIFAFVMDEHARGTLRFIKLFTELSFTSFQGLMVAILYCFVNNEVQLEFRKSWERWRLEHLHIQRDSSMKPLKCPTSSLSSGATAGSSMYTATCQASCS
Summary of the method: as §1

[2] = 0.1% bovine casein and 1.0% human serum albumin, 37° C., geometric mean
[3] = HEK293, 0.1% bovine casein and 1.0% human serum albumin, 37° C., percent of maximal response to GIP(1-42)NH2
[4] = HEK293, percent of maximal response to GIP(1-42)NH2, 37° C., 0.1% bovine casein, arithmetic mean
[5] = cAMP, incubated at 37° C., 0.1% bovine casein (no human serum albumin), geometric mean
[6] = 0.1% bovine casein and 1.0% human serum albumin
[7] = cAMP, 37° C., 0.1% bovine casein (no human serum albumin), geometric mean
[8] = cAMP, 37° C., 0.1% bovine casein and 1.0% human serum albumin, geometric mean (SEM, n)

Structure (SMILES)	Ki [1]	EC50 (hGIPR; [2])	Emax (hGIPR; [3])	Emax (hGIPR; [4])	EC50 (hGCGR; [2])	EC50 (hGCGR; [5])	EC50 (hGLP-1R; [6])	Emax (hGLP-1R; HEK293, 0.1% bovine casein and 1.0% human serum albumin)	EC50 (hGIPR; [5])	Emax (hGIPR; HEK293, cAMP, 37° C., 0.1% bovine casein and 1.0% human serum albumin, percent of maximal response to GIP(1-42)NH2)	EC50 (hGIPR; [7])	EC50 (hGIPR; [8])	EC50 (hGCGR; [7])	EC50 (hGCGR; [8])	Emax (hGLP-1R; HEK293, cAMP, 0.1% bovine casein and 1.0% human serum albumin)	EC50 (hGLP-1R; cAMP, 0.1% bovine casein (no human serum albumin))
CC[C@H](C)[C@H](NC(=O)[C@H](CCCN)NC(=O)[C@H](CC(=O)O)NC(=O)[C@H](CC(C)C)NC(=O)[C@](C)(CC(C)C)NC(=O)[C@@H](NC(=O)[C@H](CO)NC(=O)[C@H](Cc1ccncc1)NC(=O)[C@H](CC(=O)O)NC(=O)[C@H](CO)NC(=O)[C@@H](NC(=O)[C@](C)(Cc1ccccc1F)NC(=O)[C@@H](NC(=O)CNC(=O)[C@H](CCC(=O)O)NC(=O)C(C)(C)NC(=O)[C@@H](N)Cc1ccc(O)cc1)[C@@H](C)O)[C@@H](C)O)[C@@H](C)CC)C(=O)N[C@@H](C)C(=O)N[C@@H](CCC(N)=O)C(=O)NC(C)(C)C(=O)N[C@@H](CCC(=O)O)C(=O)N[C@@H](Cc1ccccc1)C(=O)N[C@H](C(=O)N[C@H](CCC(=O)O)C(=O)N[C@@](C)(Cc1ccc(O)cc1)C(=O)N[C@@H](CC(C)C)C(=O)N[C@H](C(=O)N[C@@H](CCCCNC(=O)COCCOCCNC(=O)COCCOCCNC(=O)CC[C@H](NC(=O)CCCCCCCCCCCCC(=O)O)C(=O)O)C(=O)NCC(=O)NCC(=O)N[C@@H](CCCCNC(=O)COCCOCCNC(=O)COCCOCCNC(=O)CC[C@H](NC(=O)CCCCCCCCCCCCC(=O)O)C(=O)O)C(=O)N[C@@H](CO)C(=O)N[C@@H](CO)C(=O)NCC(=O)N[C@@H](C)C(=O)N1CCC[C@H]1C(=O)N1CCC[C@H]1C(=O)N1CCC[C@H]1C(=O)N[C@@H](CO)C(N)=O)[C@@H](C)CC)[C@@H](C)CC [Example 20]	139 nM	1.66 nM	90.6 ± 0.878%	98.8 ± 3.19%	> 9950 nM	> 9950 nM	62.4 nM									
CC[C@H](C)[C@H](NC(=O)[C@H](CC(C)C)NC(=O)[C@](C)(Cc1ccc(O)cc1)NC(=O)[C@@H](CCC(=O)O)NC(=O)[C@@H](NC(=O)[C@H](Cc1ccccc1)NC(=O)[C@H](CCC(=O)O)NC(=O)C(C)(C)NC(=O)[C@H](CCC(N)=O)NC(=O)[C@H](C)NC(=O)[C@H](CCCCNC(=O)COCCOCCNC(=O)COCCOCCNC(=O)CC[C@H](NC(=O)CCCCCCCCCCCCC(=O)O)C(=O)O)NC(=O)[C@H](CCCN)NC(=O)[C@H](CC(=O)O)NC(=O)[C@H](CC(C)C)NC(=O)[C@](C)(CC(C)C)NC(=O)[C@@H](NC(=O)[C@H](CO)NC(=O)[C@H](CCCCNC(=O)COCCOCCNC(=O)COCCOCCNC(=O)CC[C@H](NC(=O)CCCCCCCCCCCCC(=O)O)C(=O)O)NC(=O)[C@H](CC(=O)O)NC(=O)[C@H](CO)NC(=O)[C@@H](NC(=O)[C@](C)(Cc1ccccc1F)NC(=O)[C@@H](NC(=O)CNC(=O)[C@H](CCC(=O)O)NC(=O)C(C)(C)NC(=O)[C@@H](N)Cc1ccc(O)cc1)[C@@H](C)O)[C@@H](C)O)[C@@H](C)CC)[C@@H](C)CC)C(=O)N[C@@H](CCC(=O)O)C(=O)NCC(=O)NCC(=O)N1CCC[C@H]1C(=O)N[C@@H](CO)C(=O)N[C@@H](CO)C(=O)NCC(=O)N[C@@H](C)C(=O)N1CCC[C@H]1C(=O)N1CCC[C@H]1C(=O)N1CCC[C@H]1C(=O)N[C@@H](CO)C(N)=O [Example 27]	> 958 nM	6.78 nM	82.8 ± 1.14%	88.8%	> 9950 nM	> 9950 nM	70.2 nM	110 ± 3.03%								
CC[C@H](C)[C@H](NC(=O)[C@H](CC(C)C)NC(=O)[C@](C)(Cc1ccc(O)cc1)NC(=O)[C@@H](CCC(=O)O)NC(=O)[C@@H](NC(=O)[C@H](Cc1ccccc1)NC(=O)[C@H](CCC(=O)O)NC(=O)C(C)(C)NC(=O)[C@H](CCC(N)=O)NC(=O)[C@H](C)NC(=O)[C@H](CCCCNC(=O)COCCOCCNC(=O)COCCOCCNC(=O)CC[C@H](NC(=O)CCCCCCCCCCCCC(=O)O)C(=O)O)NC(=O)[C@H](CCCN)NC(=O)[C@H](CC(=O)O)NC(=O)[C@H](CC(C)C)NC(=O)[C@](C)(CC(C)C)NC(=O)[C@@H](NC(=O)[C@H](CO)NC(=O)[C@H](Cc1ccncc1)NC(=O)[C@H](CC(=O)O)NC(=O)[C@H](CO)NC(=O)[C@@H](NC(=O)[C@](C)(Cc1ccccc1F)NC(=O)[C@@H](NC(=O)CNC(=O)[C@H](CCC(=O)O)NC(=O)C(C)(C)NC(=O)[C@@H](N)Cc1ccc(O)cc1)[C@@H](C)O)[C@@H](C)O)[C@@H](C)CC)[C@@H](C)CC)C(=O)N[C@@H](CCCCNC(=O)COCCOCCNC(=O)COCCOCCNC(=O)CC[C@H](NC(=O)CCCCCCCCCCCCC(=O)O)C(=O)O)C(=O)NCC(=O)NCC(=O)N1CCC[C@H]1C(=O)N[C@@H](CO)C(=O)N[C@@H](CO)C(=O)NCC(=O)N[C@@H](C)C(=O)N1CCC[C@H]1C(=O)N1CCC[C@H]1C(=O)N1CCC[C@H]1C(=O)N[C@@H](CO)C(N)=O [Example 17]	> 966 nM	0.605 nM	88.9 ± 2.36%	97.5 ± 5.04%	> 9950 nM	> 9950 nM	48.9 nM		0.0129 nM							
CC[C@H](C)[C@H](NC(=O)[C@H](CC(C)C)NC(=O)[C@](C)(Cc1ccc(O)cc1)NC(=O)[C@@H](CCC(=O)O)NC(=O)[C@@H](NC(=O)[C@H](Cc1ccccc1)NC(=O)[C@H](CCC(=O)O)NC(=O)C(C)(C)NC(=O)[C@H](CCC(N)=O)NC(=O)[C@H](C)NC(=O)[C@H](CCCCNC(=O)COCCOCCNC(=O)CC[C@H](NC(=O)CCCCCCCCCCCCC(=O)O)C(=O)O)NC(=O)[C@H](CCCN)NC(=O)[C@H](CC(=O)O)NC(=O)[C@H](CC(C)C)NC(=O)[C@](C)(CC(C)C)NC(=O)[C@@H](NC(=O)C(C)(C)NC(=O)[C@H](Cc1ccncc1)NC(=O)[C@H](CC(=O)O)NC(=O)[C@H](CO)NC(=O)[C@@H](NC(=O)[C@](C)(Cc1ccccc1F)NC(=O)[C@@H](NC(=O)CNC(=O)[C@H](CCC(=O)O)NC(=O)C(C)(C)NC(=O)[C@@H](N)Cc1ccc(O)cc1)[C@@H](C)O)[C@@H](C)O)[C@@H](C)CC)[C@@H](C)CC)C(=O)N[C@@H](CCCCNC(=O)COCCOCCNC(=O)CC[C@H](NC(=O)CCCCCCCCCCCCC(=O)O)C(=O)O)C(=O)NCC(=O)NCC(=O)N1CCC[C@H]1C(=O)N[C@@H](CO)C(=O)N[C@@H](CO)C(=O)NCC(=O)N[C@@H](C)C(=O)N1CCC[C@H]1C(=O)N1CCC[C@H]1C(=O)N1CCC[C@H]1C(=O)N[C@@H](CO)C(N)=O [Example 337]	> 957 nM									86.8%	0.0151 nM	2.65 nM	> 10100 nM	> 10100 nM	100%	0.444 nM
